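Cultured in 96-well plates, cells were exposed to test compound for 48 hours across five concentrations. Abbreviation: GI50, concentration required for 50% inhibition of growth. The concentration for full growth arrest is given as TGI.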
Assays:
Assay in all cases: NCI-60 cell line screen, 48 h; in the data active = GI50 below about 0.43 µM; inactive = the rest
NCI-H226 lung = system: NCI-H226 lung
CAKI-1 renal = system: CAKI-1 renal
BT-549 breast = system: BT-549 breast
HS 578T breast = system: HS 578T breast
SK-OV-3 ovarian = system: SK-OV-3 ovarian
NCI/ADR-RES ovarian = system: NCI/ADR-RES ovarian
ACHN renal = system: ACHN renal
CCRF-CEM leukemia = system: CCRF-CEM leukemia
786-0 renal = system: 786-0 renal
NCI-H23 lung = system: NCI-H23 lung
UACC-62 melanoma = system: UACC-62 melanoma
M14 melanoma = system: M14 melanoma
K-562 leukemia = system: K-562 leukemia
OVCAR-4 ovarian = system: OVCAR-4 ovarian
HCT-116 colon = system: HCT-116 colon
SF-295 CNS = system: SF-295 CNS
OVCAR-3 ovarian = system: OVCAR-3 ovarian
SK-MEL-5 melanoma = system: SK-MEL-5 melanoma
HOP-92 NSCLC = system: HOP-92 NSCLC
RXF 393 renal = system: RXF 393 renal
PC-3 prostate = system: PC-3 prostate
SW-620 colon = system: SW-620 colon
KM12 colon = system: KM12 colon
SF-268 CNS = system: SF-268 CNS
LOX IMVI melanoma = system: LOX IMVI melanoma
MDA-MB-435 = system: MDA-MB-435
RPMI-8226 leukemia = system: RPMI-8226 leukemia
U251 CNS = system: U251 CNS
EKVX NSCLC = system: EKVX NSCLC
SNB-19 CNS = system: SNB-19 CNS
MDA-MB-231 breast = system: MDA-MB-231 breast
OVCAR-5 ovarian = system: OVCAR-5 ovarian
TK-10 renal = system: TK-10 renal
HOP-62 NSCLC = system: HOP-62 NSCLC
UO-31 renal = system: UO-31 renal
SK-MEL-28 melanoma = system: SK-MEL-28 melanoma
NCI-H460 lung = system: NCI-H460 lung
SK-MEL-2 melanoma = system: SK-MEL-2 melanoma
UACC-257 melanoma = system: UACC-257 melanoma
A498 renal = system: A498 renal
A549 NSCLC = system: A549 NSCLC
COLO 205 colon = system: COLO 205 colon
HCT-15 colon = system: HCT-15 colon
HCC-2998 colon = system: HCC-2998 colon
SNB-75 CNS = system: SNB-75 CNS
OVCAR-8 ovarian = system: OVCAR-8 ovarian
DU-145 prostate = system: DU-145 prostate
T-47D breast = system: T-47D breast
MALME-3M melanoma = system: MALME-3M melanoma
SF-539 CNS = system: SF-539 CNS
IGROV1 ovarian = system: IGROV1 ovarian
MCF7 breast = system: MCF7 breast
SR leukemia = system: SR leukemia
SN12C renal = system: SN12C renal
MOLT-4 leukemia = system: MOLT-4 leukemia
HL-60(TB) leukemia = system: HL-60(TB) leukemia
NCI-H522 lung = system: NCI-H522 lung

N=C(N)c1ccc(-c2ccc(-c3cc(Cl)cc(Cl)c3)s2)s1
5 µM: TGI (HS 578T breast)
> 100 µM: TGI (BT-549 breast)
3.35 µM: TGI (CAKI-1 renal)
17.1 µM: TGI (SK-OV-3 ovarian)
inactive: GI50 (NCI-H226 lung) 30.8 µM | GI50 (CAKI-1 renal) 1.72 µM | GI50 (BT-549 breast) 4.37 µM | GI50 (HS 578T breast) 2.15 µM | GI50 (SK-OV-3 ovarian) 3.62 µM
65.4 µM: TGI (NCI-H226 lung)

Cc1c2c(cc[n+]1Cc1ccc(F)cc1)c1ccc(OCc3cccc(F)c3)cc1n2Cc1cccc(F)c1
inactive: GI50 (NCI/ADR-RES ovarian) 8.62 µM | GI50 (CAKI-1 renal) 2.02 µM | GI50 (SK-OV-3 ovarian) 1.81 µM
5.55 µM: TGI (CAKI-1 renal)
3.28 µM: TGI (SK-OV-3 ovarian)
> 100 µM: TGI (NCI/ADR-RES ovarian)

CC(C)C(N)C(=O)NC(CCC(=O)NCCCCC(N)C(=O)NCCCNc1ccc([N+](=O)[O-])c2[nH]c3ccccc3c(=O)c12)C(N)=O (configuration not stated)
> 100 µM: TGI (ACHN renal) | TGI (CCRF-CEM leukemia) | TGI (786-0 renal) | TGI (NCI-H23 lung) | TGI (UACC-62 melanoma) | TGI (M14 melanoma) | TGI (K-562 leukemia) | TGI (NCI/ADR-RES ovarian) | TGI (OVCAR-4 ovarian) | TGI (HCT-116 colon) | TGI (SF-295 CNS) | TGI (OVCAR-3 ovarian) | TGI (SK-MEL-5 melanoma) | TGI (NCI-H226 lung) | TGI (HOP-92 NSCLC) | TGI (PC-3 prostate) | TGI (SW-620 colon) | TGI (KM12 colon) | TGI (SF-268 CNS) | TGI (MDA-MB-435) | TGI (CAKI-1 renal) | TGI (RPMI-8226 leukemia) | TGI (U251 CNS) | TGI (EKVX NSCLC) | TGI (SNB-19 CNS) | TGI (MDA-MB-231 breast) | TGI (OVCAR-5 ovarian) | TGI (TK-10 renal) | TGI (HOP-62 NSCLC) | TGI (UO-31 renal) | TGI (SK-MEL-28 melanoma) | TGI (NCI-H460 lung) | TGI (SK-MEL-2 melanoma) | TGI (UACC-257 melanoma) | TGI (A498 renal) | TGI (A549 NSCLC) | TGI (COLO 205 colon) | TGI (SK-OV-3 ovarian) | TGI (HCT-15 colon) | TGI (HCC-2998 colon) | TGI (SNB-75 CNS) | TGI (OVCAR-8 ovarian) | TGI (DU-145 prostate) | TGI (T-47D breast)
46.5 µM: TGI (RXF 393 renal)
80.2 µM: TGI (LOX IMVI melanoma)
29.4 µM: TGI (BT-549 breast)

O=[N+]([O-])c1ccc2c(c1)c(N=NC(=S)Nc1ccc(Cl)cc1)c(O)n2CN1CCOCC1
19.2 µM: TGI (MDA-MB-435)
23.8 µM: TGI (LOX IMVI melanoma)
23.7 µM: TGI (NCI-H226 lung)
25.8 µM: TGI (SNB-75 CNS)
26.2 µM: TGI (SK-OV-3 ovarian)
30.6 µM: TGI (MDA-MB-231 breast)
27.8 µM: TGI (COLO 205 colon)
26.5 µM: TGI (UACC-257 melanoma)
18.8 µM: TGI (MALME-3M melanoma) | TGI (MCF7 breast)
20.3 µM: TGI (NCI-H460 lung)
8.44 µM: TGI (SR leukemia)
23.2 µM: TGI (NCI-H522 lung)
18.1 µM: TGI (IGROV1 ovarian)
5.9 µM: TGI (NCI/ADR-RES ovarian)
16.4 µM: TGI (ACHN renal)
11.4 µM: TGI (HCT-15 colon)
16.7 µM: TGI (786-0 renal)
21.7 µM: TGI (M14 melanoma)
20.8 µM: TGI (SNB-19 CNS) | TGI (A549 NSCLC) | TGI (T-47D breast)
26.3 µM: TGI (SK-MEL-2 melanoma)
2.97 µM: TGI (MOLT-4 leukemia)
17.6 µM: TGI (OVCAR-3 ovarian)
21.9 µM: TGI (PC-3 prostate)
24.5 µM: TGI (TK-10 renal)
28.4 µM: TGI (HS 578T breast)
15.7 µM: TGI (HCT-116 colon) | TGI (SN12C renal) | TGI (UO-31 renal)
11.5 µM: TGI (HL-60(TB) leukemia)
21.6 µM: TGI (OVCAR-4 ovarian)
28 µM: TGI (CCRF-CEM leukemia)
24 µM: TGI (KM12 colon)
18.3 µM: TGI (SF-295 CNS)
19.9 µM: TGI (RXF 393 renal)
20.1 µM: TGI (U251 CNS)
21.2 µM: TGI (HOP-92 NSCLC)
16.5 µM: TGI (SF-268 CNS)
30.8 µM: TGI (SW-620 colon)
17.7 µM: TGI (UACC-62 melanoma) | TGI (SK-MEL-5 melanoma)
23.4 µM: TGI (OVCAR-8 ovarian)
22.2 µM: TGI (DU-145 prostate)
26.6 µM: TGI (SK-MEL-28 melanoma)
12.4 µM: TGI (CAKI-1 renal)
26.4 µM: TGI (SF-539 CNS)
9.44 µM: TGI (NCI-H23 lung)

O=C1c2ccccc2-c2c1c1ccccc1c(=O)n2CCNCCn1c2c(c3ccccc3c1=O)C(=O)c1ccccc1-2
active: GI50 (SNB-19 CNS) 0.333 µM
inactive: GI50 (MALME-3M melanoma) > 25 µM | GI50 (ACHN renal) > 25 µM | GI50 (SF-539 CNS) > 25 µM | GI50 (786-0 renal) 12.2 µM | GI50 (NCI-H23 lung) > 25 µM | GI50 (UACC-62 melanoma) > 25 µM | GI50 (M14 melanoma) > 25 µM | GI50 (K-562 leukemia) 5.42 µM | GI50 (NCI/ADR-RES ovarian) > 25 µM | GI50 (HCT-116 colon) > 25 µM | GI50 (SF-295 CNS) > 25 µM | GI50 (OVCAR-3 ovarian) > 25 µM | GI50 (SK-MEL-5 melanoma) > 25 µM | GI50 (NCI-H226 lung) > 25 µM | GI50 (RXF 393 renal) > 25 µM | GI50 (SW-620 colon) > 25 µM | GI50 (KM12 colon) > 25 µM | GI50 (IGROV1 ovarian) > 25 µM | GI50 (MCF7 breast) > 25 µM | GI50 (SN12C renal) > 25 µM | GI50 (SF-268 CNS) > 25 µM | GI50 (LOX IMVI melanoma) > 25 µM | GI50 (MDA-MB-435) > 25 µM | GI50 (CAKI-1 renal) > 25 µM | GI50 (U251 CNS) > 25 µM | GI50 (EKVX NSCLC) > 25 µM | GI50 (BT-549 breast) > 25 µM | GI50 (MDA-MB-231 breast) 18.2 µM | GI50 (OVCAR-5 ovarian) > 25 µM | GI50 (MOLT-4 leukemia) 4.84 µM | GI50 (TK-10 renal) > 25 µM | GI50 (HS 578T breast) > 25 µM | GI50 (HOP-62 NSCLC) > 25 µM | GI50 (UO-31 renal) > 25 µM | GI50 (NCI-H460 lung) > 25 µM | GI50 (SK-MEL-2 melanoma) > 25 µM | GI50 (UACC-257 melanoma) > 25 µM | GI50 (A498 renal) > 25 µM | GI50 (A549 NSCLC) > 25 µM | GI50 (COLO 205 colon) 2.2 µM | GI50 (NCI-H522 lung) > 25 µM | GI50 (HCT-15 colon) > 25 µM | GI50 (OVCAR-8 ovarian) > 25 µM | GI50 (DU-145 prostate) > 25 µM
12.8 µM: TGI (MOLT-4 leukemia)
16.2 µM: TGI (K-562 leukemia)
> 25 µM: TGI (MALME-3M melanoma) | TGI (ACHN renal) | TGI (SF-539 CNS) | TGI (786-0 renal) | TGI (NCI-H23 lung) | TGI (UACC-62 melanoma) | TGI (M14 melanoma) | TGI (NCI/ADR-RES ovarian) | TGI (HCT-116 colon) | TGI (SF-295 CNS) | TGI (OVCAR-3 ovarian) | TGI (SK-MEL-5 melanoma) | TGI (NCI-H226 lung) | TGI (RXF 393 renal) | TGI (SW-620 colon) | TGI (KM12 colon) | TGI (IGROV1 ovarian) | TGI (MCF7 breast) | TGI (SN12C renal) | TGI (SF-268 CNS) | TGI (LOX IMVI melanoma) | TGI (MDA-MB-435) | TGI (CAKI-1 renal) | TGI (U251 CNS) | TGI (EKVX NSCLC) | TGI (SNB-19 CNS) | TGI (BT-549 breast) | TGI (MDA-MB-231 breast) | TGI (OVCAR-5 ovarian) | TGI (TK-10 renal) | TGI (HS 578T breast) | TGI (HOP-62 NSCLC) | TGI (UO-31 renal) | TGI (NCI-H460 lung) | TGI (SK-MEL-2 melanoma) | TGI (UACC-257 melanoma) | TGI (A498 renal) | TGI (A549 NSCLC) | TGI (COLO 205 colon) | TGI (NCI-H522 lung) | TGI (HCT-15 colon) | TGI (OVCAR-8 ovarian) | TGI (DU-145 prostate)
